Measured values published in US11479528B2, “Heat shock protein 90 inhibitors” (TAIPEI MEDICAL UNIVERSITY, priority 2017, dated 2022).
Like-named read-outs stand apart in the source and are kept apart here.

Experiments:
[1] = system: human lung NSCLC A549 cancer xenograft; assay: Human lung NSCLC A549 cancer xenograft model; assay type: in vivo; conditions: daily oral administration
[2] = system: HSP90 client proteins, i.e., EGFR, Akt, CDK-4, and HSP70, in HCT-116 tumor cells; assay: Western blot of HSP90 client proteins in HCT-116 tumor cells; assay type: cell-based, human; conditions: HCT-116 cells, 24 hours after treatment
Method: Western blot analysis was performed to detect cell apoptotic signaling activated by substituted aromatic compounds of formula (I). Cells were harvested by scraping with lysis buffer (1 mM EGTA, 1 mM EDTA, 150 mM NaCl, 1% Triton X-100, 2.5 mM sodium pyrophosphate, 1 mM PMSF, 1 mM Na3VO4, 1 ug/mL leupeptin, 1 ug/mL aprotinin, 5 mM NaF in 20 mM Tris-HCl buffer, pH 7.5). Cell lysates were centrifuged at 13,000 g for 30 min. Total protein was determined and equal amounts of protein were separated by SDS-PAGE and immunoblotted with specific antibodies. Proteins were visualized by enhanced chemiluminescence (Amersham, Buckinghamshire, UK).
Total cellular extracts were obtained 24 hours after treatment.

[3] = Pharmacokinetic profiles in rat; conditions: in vivo
Method: A pharmacokinetic study was conducted to evaluate the pharmacokinetic properties of compounds of formula (I).

breast MDA-MB-231 = assay: Sulforhodamine B (SRB) assay, breast MDA-MB-231; assay type: cell-based; conditions: Homo sapiens
Method: (§1) Human cancer cells were purchased from the American Type Culture Collection (Manassas, Va., USA). These cell lines were cultured in RPMI 1640 medium or DMEM supplemented with 10% FBS (v/v) and pencillin (100 U/mL)/streptomycin (100 ug/mL)/amphotericin B (0.25 ug/mL). Cultures were maintained at 37° C. in a humidified atmosphere of 5% CO2/95% air.
(§2) Cells were seeded in 96-well plates in medium with 5% fetal bovine serum. After 24 h, cells were fixed with 10% trichloroacetic acid to represent cell population at the time of drug addition (T0). After additional incubation of DMSO or drugs for 48 h, cells were fixed with 10% trichloroacetic acid and sulforhodamine B at 0.4% (w/v) in 1% acetic acid was added to stain cells. Unbound sulforhodamine B was washed out by 1% acetic acid and sulforhodamine B-bound cells were solubilized with 10 mmol/L Trizma base. The absorbance was read at a wavelength of 515 nm. Using the following absorbance measurements, such as time zero (T0), control growth (C), and cell growth in the presence of the drug (Tx), the percentage growth was calculated at each of the compound concentrations levels. Percentage growth inhibition was calculated as […].

[4] = system: human colon HCT116 xenograft; assay: Human colon HCT116 xenograft model; conditions: po; for TGI, tumor growth inhibition: n = 7-8
Method: An in vivo study was conducted to evaluate the efficacy of compounds of formula (I) in suppressing tumor growth in a human colon HCT116 xenograft model.

[5] = Maximum tolerated dose and therapeutic index in vivo; conditions: for MTD: in vivo, po
lymphoblast MOLT4 = assay: MTT antiproliferative assay, MOLT4; assay type: cell-based; conditions: Homo sapiens, MOLT-4
bone marrow K562 = assay: MTT antiproliferative assay, K562; assay type: cell-based; conditions: Homo sapiens
leukemia HL60 = assay: MTT antiproliferative assay, HL60; assay type: cell-based; conditions: Homo sapiens, HL-60
HSP90 α protein = HSP90 α protein (Homo sapiens, UniProt P07900); assay: HSP90 ATP-binding / fluorescence polarization competition assay (enzyme inhibition)
Method: To assess the inhibition of HSP90 activity within a cellular context, cells were treated with certain substituted aromatic compounds of formula (I) and the inhibition of HSP90 ATP-binding activity in cells was determined by using an ATP pull-down assay. Cells were treated with the compounds for 24 hours and then lysed in TNESV buffer (50 mM Tris, 2 mM EDTA, […], 1 mM activated sodium orthovanadate, 25 mM NaF, 1% Triton X-100 [pH 7.5]) for 30 min at 4° C. Lysates were spun for 30 min at 12000 rpm at 4° C. Protein (200 ug) was incubated with conditioned γ-ATP-polyacrylamide resin in incubation buffer (10 mM Tris-HCl, 50 mM KCl, 5 mM MgCl2, 20 mM Na2MoO4, 0.01% Nonidet P-40) overnight at 4° C., rotating. The resin was then washed four times with incubation buffer. Bound proteins were isolated by boiling with SDS buffer. For the competition studies, fluorescence polarization assays were performed under the following conditions: each 96-well plate contained 5 nM fluorescent GM (geldanamycin), 30 nM HSP90 α protein, and tested inhibitor in a final volume of 100 uL. For each assay, background wells (buffer only), tracer controls (free, fluorescent GMonly), and bound GM controls (fluorescent GM in the presence of HSP90) were included on each assay plate. The fraction of tracer bound to HSP90 was correlated to the mP value and plotted against log 10 values of competitor concentrations. The inhibitor concentration at which 50% of bound GM was displaced was obtained by fitting the data.

colorectal HCT116 = assay: Sulforhodamine B (SRB) assay, colorectal HCT116; assay type: cell-based; conditions: Homo sapiens
Method: as §1, §2

liver Hep3B = assay: Sulforhodamine B (SRB) assay, liver Hep3B; assay type: cell-based; conditions: Homo sapiens
Method: as §1, §2

HUVEC cells = assay: Sulforhodamine B (SRB) assay, HUVEC; conditions: for GI50: Homo sapiens, HUVEC
Method: as §1, §2

lung A549 = assay: Sulforhodamine B (SRB) assay, lung A549; assay type: cell-based, human; conditions: Homo sapiens
Method: Human cancer cells were purchased from the American Type Culture Collection (Manassas, Va., USA).
Cells were seeded in 96-well plates in medium with 5% fetal bovine serum. […] Unbound sulforhodamine B was washed out by 1% acetic acid and sulforhodamine B-bound cells were solubilized with 10 mmol/L Trizma base. […] Using the following absorbance measurements, such as time zero (T0), control growth (C), and cell growth in the presence of the drug (Tx), the percentage growth was calculated at each of the compound concentrations levels. Percentage growth inhibition was calculated as […].

[6] = MDA-MB-231, 48 h, read-out: GI50 Breast MDA-MB-231
[7] = HCT-116, 48 h, read-out: GI50 Colorectal HCT116
[8] = 48 h, read-out: GI50 Liver Hep3B
[9] = A549, 48 h, read-out: GI50 Lung A549
[10] = MDA-MB-231, read-out: MDA-MB-231 GI50

Compound	expression levels of the chaperone HSP70 [2]	levels of HSP90 client proteins (EGFR, Akt, CDK-4) [2]	Vd ([3]; iv, 2 mg/kg) [L/kg]	Cmax ([3]; po, 20 mg/kg) [ng/mL]	Tmax ([3]; po, 20 mg/kg) [h]	MTD [5] [mg/kg]	IC50 (HSP90 α protein) [nM]	AUC(0-inf) ([3]; iv, 2 mg/kg) [ng·h/mL]	clearance ([3]; iv, 2 mg/kg) [mL/min/kg]	half-life ([3]; iv, 2 mg/kg) [h]	AUC(0-inf) ([3]; po, 20 mg/kg) [ng·h/mL]	bioavailability ([3]; po, 20 mg/kg) [%]	half-life ([3]; po, 20 mg/kg) [h]	GI50 (breast MDA-MB-231; [6]) [nM]	GI50 (colorectal HCT116; [7]) [nM]	GI50 (colorectal HCT116; HCT-116, read-out: HCT116 GI50) [nM]	GI50 (liver Hep3B; [8]) [nM]	GI50 (HUVEC cells; 48 h, read-out: GI50 HUVEC) [nM]	TI, Therapeutic Index, ratio of MTD to minimum efficacious dose (MED) [5]	GI50 (lung A549; [9]) [nM]	other results
CCN(C(=O)c1cc(C(C)C)c(O)cc1O)c1cccnc1 [Compound 18b, N-ethyl-2,4-dihydroxy-5-isopropyl-N-(pyridin-3-yl)benzamide]	increase	substantial depletion	5.5 ± 1.1	40 ± 13	6 ± 2	250	110 ± 3.13														TGI ([1]; 25 mg/kg): 46.7%; TGI ([1]; 50 mg/kg): 46.9%; TGI ([1]; 100 mg/kg): 50.9%; body weight loss ([1]; 25, 50, and 100 mg/kg): without significant body weight loss; AUC(0-inf) ([3]; iv, 2 mg/kg, AUC(0-inf), IV (2 mg/kg)): 520 ± 14 ng·h/mL; clearance ([3]; iv, 2 mg/kg, CL, IV (2 mg/kg)): ~64 mL/min/kg; half-life ([3]; iv, 2 mg/kg, T1/2, rat, IV (2 mg/kg)): 4 ± 1.7 h; bioavailability ([3]; oral, 20 mg/kg): 25%; AUC(0-inf) ([3]; po, 20 mg/kg, AUC(0-inf), PO (20 mg/kg)): ~1310 ng·h/mL; half-life ([3]; po, 20 mg/kg, T1/2, rat, PO (20 mg/kg)): ~27.7 h; GI50 (breast MDA-MB-231; MDA-MB-231, Table 2, SRB, read-out: MDA-MB-231 GI50): 90 ± 10 nM; Loss of Body ([4]; 25 mg/kg, qd): 0%; TGI, tumor growth inhibition ([4]; 25 mg/kg, qd): 55.6%; Loss of Body ([4]; 100 mg/kg, qd): 0%; TGI, tumor growth inhibition ([4]; 100 mg/kg, qd): 74.3%; IC50 (lymphoblast MOLT4): 190 ± 10 nM; IC50 (bone marrow K562): 130 ± 90 nM; IC50 (leukemia HL60): 240 ± 40 nM
CCN(C(=O)c1cc(C(C)C)c(O)cc1O)c1ccc2[nH]ccc2c1 [Compound 20c, N-ethyl-2,4-dihydroxy-N-(1H-indol-5-yl)-5-isopropylbenzamide]			9 ± 2.8	67 ± 23	2.7 ± 1.2	100	117 ± 9.62	234 ± 114	170 ± 64	1.5 ± 0.5	499 ± 38	22	5.9 ± 1.6	80 ± 10	370 ± 50	370 ± 50	110 ± 20	< 100	1	110 ± 10	Loss of Body ([4]; 100 mg/kg, qd × 7/5 on 2 off, Day 7): −15.4%; TGI, tumor growth inhibition ([4]; 100 mg/kg, qd × 7/5 on 2 off): 33.1%; GI50 (lung A549; A549, read-out: A549 GI50): 110 ± 10 nM
CC(C)c1cc(C(=O)N(C)c2ccc3[nH]ccc3c2)c(O)cc1O [Compound 20b, 2,4-dihydroxy-N-(1H-indol-5-yl)-5-isopropyl-N-methylbenzamide]	increase	substantial depletion	18 ± 4.5	82 ± 34	2.2 ± 1.8	< 250	115 ± 10.7	142 ± 25	237 ± 37	1.3 ± 0.3	533 ± 154	37	7.5 ± 1.3	70 ± 10	1000 ± 490	1000 ± 490	180 ± 40	570 ± 20	<2.5	170 ± 10	GI50 (breast MDA-MB-231; [10]): 70 ± 10 nM; GI50 (liver Hep3B; read-out: Hep3B GI50): 180 ± 40 nM; Loss of Body ([4]; 100 mg/kg, qd × 7/5 on 2 off, Day 5): −8.5%; TGI, tumor growth inhibition ([4]; 100 mg/kg, qd × 7/5 on 2 off): 37.7%; TI, Therapeutic Index measured by GI50(HUVEC)/GI50(A549) (HUVEC cells): 3.4; GI50 (HUVEC cells; read-out: HUVEC GI50): 570 ± 20 nM; GI50 (lung A549; A549, read-out: A549 GI50): 170 ± 10 nM
CC(C)c1cc(C(=O)N(C)c2ccc3c(ccn3C)c2)c(O)cc1O [Compound 20g, 2,4-dihydroxy-5-isopropyl-N-methyl-N-(1-methyl-1H-indol-5-yl)benzamide]	increase	substantial depletion	4.3 ± 1.3	12.8 ± 8.3	0.5 ± 0.4	< 250	106 ± 7.58	288 ± 59	117 ± 23	0.7 ± 0.1	36 ± 5	1.3	2.2 ± 0.6	100 ± 20	700 ± 60	700 ± 60	570 ± 320	820 ± 30	<2.5	280 ± 20	GI50 (breast MDA-MB-231; [10]): 100 ± 20 nM; GI50 (liver Hep3B; read-out: Hep3B GI50): 570 ± 320 nM; TGI, tumor growth inhibition ([4]; 100 mg/kg, qd): 83.9%; TI, Therapeutic Index measured by GI50(HUVEC)/GI50(A549) (HUVEC cells): 2.9; GI50 (HUVEC cells; read-out: HUVEC GI50): 820 ± 30 nM; GI50 (lung A549; A549, read-out: A549 GI50): 280 ± 20 nM
